Assay results taken from ChEMBL document CHEMBL1201862, “PubChem BioAssay data set” (2004).
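Protocol summary: plate cells (96-well), add compound at 5 concentrations, incubate 48 h, interpolate endpoints linearly. GI50 is the concentration that inhibits growth by half.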 Activity calls are given as the source filed them. Rule as the data show it: active = GI50 up to about 1.1 µM and inactive = higher.

Experiments:
Experiment in all cases: NCI tumour cell line growth inhibition, 48 h
SW-620 = tested on: SW-620
Malme-3M = tested on: Malme-3M
NCI-H226 = tested on: NCI-H226
OVCAR-4 = tested on: OVCAR-4
BT-549 = tested on: BT-549
NCI-H522 = tested on: NCI-H522
A498 = tested on: A498
RXF 393 = tested on: RXF 393
NCI-H460 = tested on: NCI-H460
DU-145 = tested on: DU-145
HCT-15 = tested on: HCT-15
A549 = tested on: A549
HL-60 = tested on: HL-60
OVCAR-3 = tested on: OVCAR-3
U-251 = tested on: U-251
OVCAR-8 = tested on: OVCAR-8
MDA-MB-231 = tested on: MDA-MB-231
UACC-257 = tested on: UACC-257
NCI-H23 = tested on: NCI-H23
K562 = tested on: K562
PC-3 = tested on: PC-3
SF-295 = tested on: SF-295
SNB-19 = tested on: SNB-19
HOP-62 = tested on: HOP-62
RPMI-8226 = tested on: RPMI-8226
786-0 = tested on: 786-0
CCRF-CEM = tested on: CCRF-CEM
Hs-578T = tested on: Hs-578T
MCF7 = tested on: MCF7
COLO 205 = tested on: COLO 205
HOP-92 = tested on: HOP-92
SK-MEL-5 = tested on: SK-MEL-5
OVCAR-5 = tested on: OVCAR-5
ACHN = tested on: ACHN
SK-OV-3 = tested on: SK-OV-3
SF-268 = tested on: SF-268
MOLT-4 = tested on: MOLT-4
SK-MEL-28 = tested on: SK-MEL-28
UO-31 = tested on: UO-31
UACC-62 = tested on: UACC-62
IGROV-1 = tested on: IGROV-1
HT-29 = tested on: HT-29
HCT-116 = tested on: HCT-116
EKVX = tested on: EKVX
SN12C = tested on: SN12C
T47D = tested on: T47D
KM12 = tested on: KM12
SF-539 = tested on: SF-539
M14 = tested on: M14
SR = tested on: SR
LOX IMVI = tested on: LOX IMVI
MDA-N = tested on: MDA-N
CAKI-1 = tested on: CAKI-1
HCC 2998 = tested on: HCC 2998
MDA-MB-435 = tested on: MDA-MB-435
NCI/ADR-RES = tested on: NCI/ADR-RES
TK-10 = tested on: TK-10
SK-MEL-2 = tested on: SK-MEL-2

For O=C(CCc1ccc(O)c(O)c1)OCCc1ccccc1, the GI50 (SW-620) was 31.1 µM (inactive), the GI50 (Malme-3M) was > 88.9 µM (inactive) and the GI50 (NCI-H226) was > 100 µM (inactive). For the same molecule, the GI50 (OVCAR-4) was 29.6 µM (inactive), the GI50 (BT-549) was > 100 µM (inactive) and the GI50 (NCI-H522) was 3.7 µM (inactive). The GI50 (A498) was > 100 µM (inactive), the GI50 (RXF 393) was > 67 µM (inactive) and the GI50 (NCI-H460) was > 100 µM (inactive). For the same molecule, the GI50 (DU-145) was > 100 µM (inactive), the GI50 (HCT-15) was > 53 µM and the GI50 (A549) was > 100 µM (inactive). For the same molecule, the GI50 (HL-60) was 3.85 µM (inactive), the GI50 (OVCAR-3) was 29.6 µM (inactive) and the GI50 (U-251) was > 100 µM (inactive). For the same molecule, the GI50 (OVCAR-8) was 23.1 µM (inactive), the GI50 (MDA-MB-231) was 67.6 µM (inactive) and the GI50 (UACC-257) was > 82.2 µM (inactive). For the same molecule, the GI50 (NCI-H23) was > 65.3 µM (inactive), the GI50 (K562) was 20.4 µM (inactive) and the GI50 (PC-3) was > 100 µM (inactive). For the same molecule, the GI50 (SF-295) was > 100 µM (inactive), the GI50 (SNB-19) was > 100 µM (inactive) and the GI50 (HOP-62) was > 31.6 µM (inactive). For the same molecule, the GI50 (RPMI-8226) was 18.9 µM (inactive), the GI50 (786-0) was 19.7 µM (inactive) and the GI50 (CCRF-CEM) was 4.86 µM (inactive). The GI50 (Hs-578T) was > 100 µM (inactive), the GI50 (MCF7) was > 62.1 µM (inactive) and the GI50 (COLO 205) was 42.7 µM (inactive). For the same molecule, the GI50 (HOP-92) was > 21.2 µM (inactive), the GI50 (SK-MEL-5) was 42.2 µM (inactive) and the GI50 (OVCAR-5) was > 100 µM (inactive). The GI50 (ACHN) was 59.7 µM (inactive), the GI50 (SK-OV-3) was > 100 µM (inactive) and the GI50 (SF-268) was > 100 µM (inactive). The GI50 (MOLT-4) was 15.1 µM (inactive), the GI50 (SK-MEL-28) was > 100 µM (inactive) and the GI50 (UO-31) was > 80.9 µM (inactive). The GI50 (UACC-62) was 45.4 µM (inactive), the GI50 (IGROV-1) was 54.1 µM (inactive) and the GI50 (HT-29) was > 100 µM (inactive). For the same molecule, the GI50 (HCT-116) was 44.6 µM (inactive), the GI50 (EKVX) was > 100 µM (inactive) and the GI50 (SN12C) was > 61.1 µM (inactive). The GI50 (T47D) was > 96.4 µM (inactive), the GI50 (KM12) was > 100 µM (inactive) and the GI50 (SF-539) was 18.6 µM (inactive). For the same molecule, the GI50 (M14) was 67.3 µM (inactive), the GI50 (SR) was 17.6 µM (inactive) and the GI50 (LOX IMVI) was 22.5 µM (inactive). The GI50 (MDA-N) was 15.4 µM (inactive), the GI50 (CAKI-1) was 78.3 µM (inactive) and the GI50 (HCC 2998) was > 100 µM (inactive). The GI50 (MDA-MB-435) was 20.8 µM (inactive), the GI50 (NCI/ADR-RES) was > 100 µM (inactive) and the GI50 (TK-10) was > 100 µM (inactive). The GI50 (SK-MEL-2) was > 100 µM (inactive).
In the case of CC(C)(/N=N/C(C)(C)C(=O)NCCO)C(=O)NCCO, the GI50 (SW-620) was > 100 µM (inactive), the GI50 (Malme-3M) was > 100 µM (inactive) and the GI50 (NCI-H226) was > 100 µM (inactive). The GI50 (OVCAR-4) was > 100 µM (inactive), the GI50 (BT-549) was > 100 µM (inactive) and the GI50 (NCI-H522) was 39.7 µM (inactive). For the same molecule, the GI50 (A498) was > 100 µM (inactive), the GI50 (RXF 393) was > 100 µM (inactive) and the GI50 (NCI-H460) was > 100 µM (inactive). The GI50 (DU-145) was > 100 µM (inactive), the GI50 (HCT-15) was > 100 µM and the GI50 (A549) was > 100 µM (inactive). The GI50 (HL-60) was > 100 µM (inactive), the GI50 (OVCAR-3) was > 100 µM (inactive) and the GI50 (U-251) was > 100 µM (inactive). The GI50 (OVCAR-8) was > 100 µM (inactive), the GI50 (MDA-MB-231) was > 100 µM (inactive) and the GI50 (UACC-257) was > 100 µM (inactive). For the same molecule, the GI50 (NCI-H23) was > 100 µM (inactive), the GI50 (K562) was > 100 µM (inactive) and the GI50 (PC-3) was > 100 µM (inactive). For the same molecule, the GI50 (SF-295) was > 100 µM (inactive), the GI50 (SNB-19) was > 100 µM (inactive) and the GI50 (HOP-62) was > 100 µM (inactive). The GI50 (RPMI-8226) was > 100 µM (inactive), the GI50 (786-0) was > 100 µM (inactive) and the GI50 (CCRF-CEM) was > 100 µM (inactive). The GI50 (Hs-578T) was > 100 µM (inactive), the GI50 (MCF7) was > 100 µM (inactive) and the GI50 (COLO 205) was > 100 µM (inactive). For the same molecule, the GI50 (HOP-92) was > 100 µM (inactive), the GI50 (SK-MEL-5) was > 100 µM (inactive) and the GI50 (OVCAR-5) was > 100 µM (inactive). For the same molecule, the GI50 (ACHN) was > 100 µM (inactive), the GI50 (SK-OV-3) was > 100 µM (inactive) and the GI50 (SF-268) was > 100 µM (inactive). The GI50 (MOLT-4) was > 100 µM (inactive), the GI50 (SK-MEL-28) was > 100 µM (inactive) and the GI50 (UO-31) was > 100 µM (inactive). The GI50 (UACC-62) was > 100 µM (inactive), the GI50 (IGROV-1) was > 100 µM (inactive) and the GI50 (HT-29) was > 100 µM (inactive). For the same molecule, the GI50 (HCT-116) was > 100 µM (inactive), the GI50 (EKVX) was > 100 µM (inactive) and the GI50 (SN12C) was > 100 µM (inactive). The GI50 (T47D) was > 100 µM (inactive), the GI50 (KM12) was > 100 µM (inactive) and the GI50 (SF-539) was > 100 µM (inactive). The GI50 (M14) was > 100 µM (inactive), the GI50 (SR) was > 100 µM (inactive) and the GI50 (LOX IMVI) was > 100 µM (inactive). The GI50 (MDA-N) was > 100 µM (inactive), the GI50 (CAKI-1) was > 100 µM (inactive) and the GI50 (HCC 2998) was > 100 µM (inactive). The GI50 (MDA-MB-435) was > 100 µM (inactive), the GI50 (NCI/ADR-RES) was > 100 µM (inactive) and the GI50 (TK-10) was > 100 µM (inactive). The GI50 (SK-MEL-2) was > 100 µM (inactive).
In the case of CO/C=C(/C(=O)OC)c1ccccc1[C@@H]1CC1c1cccc(F)c1 (some centres not stated), the GI50 (Malme-3M) was 16 µM (inactive), the GI50 (NCI-H226) was 25.6 µM (inactive) and the GI50 (OVCAR-4) was 20.2 µM (inactive). The GI50 (BT-549) was 25.4 µM (inactive), the GI50 (NCI-H522) was 14.2 µM (inactive) and the GI50 (A498) was 25.6 µM (inactive). The GI50 (RXF 393) was 58.3 µM (inactive), the GI50 (NCI-H460) was 26.6 µM (inactive) and the GI50 (DU-145) was 33 µM (inactive). The GI50 (HCT-15) was 23.4 µM, the GI50 (A549) was 20.6 µM (inactive) and the GI50 (HL-60) was 18.4 µM (inactive). The GI50 (OVCAR-3) was 27.6 µM (inactive), the GI50 (U-251) was 30.5 µM (inactive) and the GI50 (OVCAR-8) was 33.5 µM (inactive). The GI50 (MDA-MB-231) was 29.9 µM (inactive), the GI50 (UACC-257) was 19.9 µM (inactive) and the GI50 (NCI-H23) was 24.5 µM (inactive). The GI50 (K562) was 44.2 µM (inactive), the GI50 (PC-3) was 29 µM (inactive) and the GI50 (SF-295) was 67 µM (inactive). The GI50 (SNB-19) was 53.3 µM (inactive), the GI50 (HOP-62) was 51.6 µM (inactive) and the GI50 (RPMI-8226) was 19.5 µM (inactive). The GI50 (786-0) was 41 µM (inactive), the GI50 (CCRF-CEM) was 26.5 µM (inactive) and the GI50 (Hs-578T) was 41.1 µM (inactive). The GI50 (MCF7) was 43.6 µM (inactive), the GI50 (COLO 205) was 15.7 µM (inactive) and the GI50 (HOP-92) was 23.3 µM (inactive). The GI50 (SK-MEL-5) was 12.3 µM (inactive), the GI50 (OVCAR-5) was > 100 µM (inactive) and the GI50 (ACHN) was 23.2 µM (inactive). The GI50 (SK-OV-3) was 25.5 µM (inactive), the GI50 (SF-268) was 37.5 µM (inactive) and the GI50 (MOLT-4) was 29.2 µM (inactive). For the same molecule, the GI50 (SK-MEL-28) was 39.4 µM (inactive), the GI50 (UO-31) was 31.8 µM (inactive) and the GI50 (UACC-62) was 18.2 µM (inactive). The GI50 (IGROV-1) was 18.2 µM (inactive), the GI50 (HT-29) was 30.4 µM (inactive) and the GI50 (HCT-116) was 21.1 µM (inactive). For the same molecule, the GI50 (EKVX) was 30.5 µM (inactive), the GI50 (SN12C) was 29.6 µM (inactive) and the GI50 (T47D) was 20.4 µM (inactive). The GI50 (KM12) was 24.7 µM (inactive), the GI50 (SF-539) was 28.4 µM (inactive) and the GI50 (M14) was 19.8 µM (inactive). For the same molecule, the GI50 (SR) was 21.2 µM (inactive), the GI50 (MDA-N) was 22.1 µM (inactive) and the GI50 (CAKI-1) was 18.6 µM (inactive). The GI50 (HCC 2998) was 25 µM (inactive), the GI50 (MDA-MB-435) was 19.3 µM (inactive) and the GI50 (NCI/ADR-RES) was 30.5 µM (inactive). The GI50 (TK-10) was 37.9 µM (inactive) and the GI50 (SK-MEL-2) was 16.9 µM (inactive).
